The values that follow come from publication PMC10590756, “Glutarate regulates T cell metabolism and anti-tumour immunity” (Nature Metabolism, 2023).

Each structure is given as a SMILES string.

One series concerns human CD8^+ T cells. The experiment in a line: qPCR gene expression in CD8^+ T cells. Type of series: cell-based. The note with it: 500 µM DEG, 7 days. On the procedure: Total RNA was extracted from isolated CD8^+ T cells (RNeasy Kit, QIAGEN); 300 ng of RNA were used for complementary DNA synthesis (First-Strand cDNA Synthesis Kit, Invitrogen). Quantitative PCR with reverse transcription (RT–qPCR) was performed with SYBR green (Roche) in a StepOnePlus system (Applied Biosystems). All kits were used according to the manufacturer’s instructions. Samples were run in technical duplicates. Primers were designed with NCBI primer blast and are listed in Supplementary Table 5.
For orientation: Real-time PCR tracks product formation cycle by cycle.

For series [1], the system named is protein glutarylation in human CD8^+ T cells. Description: Pan-lysine glutarylation western blot. It counts as cell-based. On the procedure: We determined this first by undertaking whole-protein lysate western blot analyses with a pan-lysine glutarylation (K-glutarylation) antibody[36],[38]. […] Glutarylation patterns were also altered when cells were exposed to different oxygen tensions (Fig. 3c and Extended Data Fig. 3a) and when treated with DEG (Fig. 3d and Extended Data Fig. 3b). […] Since, as shown in Extended Data Fig. 1g, DEG is converted within 15 min to glutarate intracellularly, it is likely that the DEG-induced glutarylation observed after 30 min of DEG treatment is a direct result of increases in intracellular glutarate.
Cell pellets were lysed by either urea-Tris buffer (8 M urea, 50 mM Tris-HCl (pH 7.5), 150 mM β-mercaptoethanol), sonicated twice for 45 s intercalated with 1 min incubation on ice and centrifuged at 14,000g, 4 °C for 15 min or by RIPA Lysis and Extraction Buffer (catalogue no. 89900, Thermo Fisher Scientific), according to the manufacturer’s instructions. Nuclear and cytosolic fractions were prepared from cells using the NE-PER kit (catalogue no. 78833, Thermo Fisher Scientific). Histones were extracted with the Histone Extraction Kit (catalogue no. ab113476, Abcam). Proteins were separated by SDS–PAGE and transferred to polyvinylidene fluoride (PVDF) membranes. Total protein stain was obtained using non-stain protein labelling reagent (catalogue no. A44448, Thermo Fisher Scientific). […]

Series [2] has as its target T1, PDHE2 lipoate in human CD8^+ T cells (Homo sapiens, UniProt P10515).
T1 construct: We treated human CD8^+ T cells with DEG and observed reduced PDHE2 lipoate level; endogenous in cells; host or cells: primary human CD8+ T cells
The experiment in a line: PDHE2 lipoate western blot. Type of series: cell-based. The note with it: 500 µM DEG, 24 h. As to the method: Lipoic acid western blotting was performed as above with the following alterations: blocking buffer and secondary antibody buffer (5% milk plus 1% fatty acid free bovine serum albumin (BSA) (catalogue no. BP9704100, Thermo Fisher Scientific) prepared in PBS plus 0.05% Tween-20); and primary antibody buffer (2% fatty acid free BSA prepared in PBS plus 0.05% Tween-20). Lipoic acid antibody was used at a concentration of 1:2,000 (catalogue no. 437695, Sigma-Aldrich). Data were analysed using the iBright Analysis Software v.4.0.1 or ImageJ.
(In general: A western blot detects proteins with antibodies after separation by electrophoresis.)

The next series relates to CD8^+ T cells. The experiment in a line: Acetyl-CoA measurement. The note with it: 500 µM DEG, 30 min or 7 days. It counts as cell-based, human. On the procedure:
Acetyl-CoA levels were determined using an acetyl-CoA assay kit (catalogue no. MAK039, Sigma-Aldrich). After culture, 2 × 10^6 cells per condition were collected, washed twice with ice-cold PBS and resuspended in 500 µl of the assay buffer. Following deproteinization by adding 2 µl 1M perchloric acid, samples were sonicated and the assay was performed according to the manufacturer’s instructions. Data were acquired on the FLUOstar Omega.

For another series, the system named is human CD19^+ CAR T cells. The experiment in a line: Growth of human CD19 CAR T cells. It counts as cell-based. The note with it: 500 µM, 7 days.

T1 sequence (P10515 87-647): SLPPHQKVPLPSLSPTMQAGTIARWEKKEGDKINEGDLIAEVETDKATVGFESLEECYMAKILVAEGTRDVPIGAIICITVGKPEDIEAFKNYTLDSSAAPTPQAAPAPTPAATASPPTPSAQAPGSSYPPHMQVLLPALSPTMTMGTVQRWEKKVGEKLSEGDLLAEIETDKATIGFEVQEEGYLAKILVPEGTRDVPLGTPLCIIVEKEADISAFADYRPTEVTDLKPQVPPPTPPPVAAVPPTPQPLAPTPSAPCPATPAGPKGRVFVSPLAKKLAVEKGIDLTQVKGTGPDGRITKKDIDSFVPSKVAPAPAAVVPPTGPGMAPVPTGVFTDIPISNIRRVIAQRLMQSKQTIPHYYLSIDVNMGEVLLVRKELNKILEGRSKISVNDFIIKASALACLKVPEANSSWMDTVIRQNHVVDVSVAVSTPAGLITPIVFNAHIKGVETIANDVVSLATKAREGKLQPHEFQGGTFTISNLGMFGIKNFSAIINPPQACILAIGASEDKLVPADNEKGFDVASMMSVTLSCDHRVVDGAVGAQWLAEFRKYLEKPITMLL

As to `CCOC(=O)CCCC(=O)OCC` [DEG, Diethyl glutarate], in the series on human CD8^+ T cells, the “carnitine palmitoyltransferase 1A (CPT1A) gene expression” value is on record as “increased levels”, the “expression of HIF target genes” value is on record as “increased expression”, the “fatty acid binding protein (FABP) gene expression” value was “increased levels” and the “fatty acid synthase (FASN) gene expression” value is “increased levels”. Also, the “mRNA levels of PDHK1” value in the series with human CD8^+ T cells was “increased”. In addition, the “time of culture with DEG after which shifts in glutarylation could be detected” value in series [1] (500 µM DEG) was 30 min. For the same molecule, the glutarylation patterns result in series [1] (increasing concentrations of DEG, 7 days) is “altered”. Further, the PDHE2 lipoate level result in series [2] is reported as “reduced”. Moreover, in the series on CD8^+ T cells, the acetyl-CoA levels result is on record as “not lower”. Moreover, the “growth of human CD19^+ CAR T cells” value in the series with human CD19^+ CAR T cells is “did not affect the growth”.
